Measured values published in US20260315499A1, “2'- {HETEROCYCLYL (ARYL/ALKYL) METHYL} - CANNABIDIOL COMPOUNDS AND PROCESS FOR PREPARATION THEREOF” (COUNCIL OF SCIENTIFIC & INDUSTRIAL RESEARCH, priority 2023, published 2026).
“And” between values parts separate entries of the source, which are not always exact repeats. Equal entries are not always repeated. Where two headings read alike, the source gives them in different places.

What was measured:
[1] = system: nitric oxide (NO) production in RAW264.7 macrophages; assay: In vitro anti-inflammatory activity: nitric oxide production (Griess) in LPS-exposed RAW264.7 macrophages; assay type: cell-based, mouse; conditions: LPS 24 hrs
Method: Measurement of Nitric oxide: RAW264.7 macrophages were seeded in 96-well plates with a density of 0.5×10^5 cells/well and incubated overnight at 37° C. in a 5% CO2 atmosphere. The cells were treated with different concentration of CBD and its analogues and exposed to LPS for 24 hrs. For nitric oxide (NO) determination, the cell culture supernatant was taken and mixed with equal volume of Griess reagent in another 96 well plate at room temperature (Biomed Pharmacother., 2017, 92, 175-186). The absorbance was measured at 540 nm. The final calculations were determined on a NaNO2 standard curve.

[2] = Cell viability assay in differentiated neuronal cells (MTT), N2A; assay type: cell-based; conditions: mouse, read-out: % Cell viability ± SD, N2A
Excerpt: (§1) In the present disclosure outlined herein, a focused library of cannabidiol analogues were studied for possible neuro-protective potential employing cell line-based stress model systems which mimic the biological stress conditions in vitro (J Cell Biochem., 2018, 119(8), 6482-6491).
(§2) Human neuroblastoma cells (SHSY5Y) and mouse neuroblastoma cells (N2A) were procured from American Type Culture Collection (ATCC). SHSY5Y cell cultures were maintained in DMEM F12 (Invitrogen) whereas N2A were cultured in DMEM (Invitrogen) with 10% Fetal Bovine Serum (Gibco) medium, subjected to differentiation to acquire neuronal morphology (employing differentiation media DMEM-F12, 3-5% FBS, (For differentiation, low concentration of FBS was used) and 50 μM retinoic acid). Differentiated cells were later seeded into 96 well plates, at a density of 1×10^4 before being incubated for 48 hrs with the synthesized library. The exhausted culture media was substituted with new culture media containing 0.5 mg/ml MTT dye. Eventually, the OD at 490 nm excitation was measured using a 96-well plate reader. The proportion of viable cells was determined as percentage of absorbance of untreated cultures relative to control.

[3] = Cell viability assay in macrophage RAW264.7 cells (MTT); assay type: cell-based; conditions: mouse, read-out: % cell viability ± SD
Method: RAW264.7 cells were seeded in 96-well cell culture plates at a density of 1×10^4 cells per well and incubated overnight at 37° C. with 5% CO2. Next day, the cells were treated with CBD or its derivatives at 5 μM and/or 10 μM concentration for 24 hrs. The MTT dye (2.5 mg/ml, 20 μL) was added to each well 4 hrs before termination (Molecules. 2022, 27, 8068). After 4 hrs of incubation with MTT, the supernatant was discarded, and the formazan crystals were dissolved by adding 100 μL DMSO. The absorbance was recorded at 540 nm on microplate reader (Tecan Infinite Pro).

[4] = Cell viability assay in differentiated neuronal cells (MTT), SHSY5Y; assay type: cell-based; conditions: human, read-out: % Cell viability ± SD, SHSY5Y
Excerpt: as §1, §2

[5] = system: TrkB stable cells SHSY5Y; assay: Cytoprotective effect in TrkB stable cells SHSY5Y, 96 hrs; assay type: cell-based, human; conditions: Homo sapiens, SH-SY5Y, 96 h
Method: In another experiment, the cytoprotective effect of A1 as well as parent molecule B1 was determined in TrkB stable cells SHSY5Y.

[6] = In vivo corticosterone induced depression model: effect on body weight; design: species or system mouse (male C57); conditions: 21 days
Method: (§3) In vivo efficacy (ameliorates behavioral despair) of A1 in corticosterone induced model of stress (J. Neurochem., 2018 146, 722 734). […] A1 (20 mg/kg, oral) dissolved in normal saline was given for 3 consecutive weeks following corticosteroid stress. The sucrose preference test was employed, tail suspension test, and forced swim test to evaluate behavioral distress. We noticed that A1 can resurrect mice in stressful situations. […]

[7] = system: Anti BDNF; assay: Survival pathway protein expression by western blotting in SHSY5Y; assay type: cell-based, human; conditions: after corticosterone insult
Method: (§4) Here, A1 was tested to find its role in eliciting survival pathway proteins in differentiated human neuroblastoma cells in concentration and time dependent manner.
(§5) To investigate the effect of A1 on the survival proteins, SHSY5Y cell cultures were treated with different concentrations for 6 hrs and analyzed for the expression of survival proteins, including p-Erk 44/42, p-AKT 473, Anti BDNF, and p TrkB 816 and p TrKB 515 by western blotting.

[8] = system: p-Erk 44/42; assay: as above; assay type: cell-based, human; conditions: after corticosterone insult
Method: as §4, §5

[9] = system: p TrkB 816; assay: as above; assay type: cell-based, human
Method: as §4, §5

[10] = system: p TrkB 515; assay: as above; assay type: cell-based, human
Method: as §4, §5

[11] = system: p-Erk 44/42; assay: as above; assay type: cell-based, human; conditions: Cort. 400 μM, 6 hrs
[12] = system: Anti BDNF; assay: as above; assay type: cell-based, human; conditions: Cort. 400 μM, 6 hrs
[13] = system: depression mice model; assay: In vivo corticosterone induced depression model: Tail Suspension Test (TST); design: species or system mouse (male C57)
Method: A1 (20 mg/kg, oral) dissolved in normal saline was given for 3 consecutive weeks following corticosteroid stress. The sucrose preference test was employed, tail suspension test, and forced swim test to evaluate behavioral distress.
Tail Suspension Test (TST) is a behavioral test employed to assess perturbations expected to influence depression like phenotypes. TST is grounded on the reflection that the extent of immobility is allied with depressing phenotype of mice overturned by antidepressants. Mice were positioned 2 cm from their tail tips and 5 cm above the ground suspending the tails using adhesive tape for the free movement (Acta Neuropathol Commun., 2016, 4(1), 108).
The contemporary immobility was alluded to as interruption in motion, where a blind assessor evaluates the disappointed aspect of display before scoring it.

[14] = system: p-AKT 473; assay: Survival pathway protein expression by western blotting in SHSY5Y; assay type: cell-based, human
Method: as §4
To investigate the effect of A1 on the survival proteins, […] of survival proteins, including p-Erk 44/42, p-AKT 473, Anti BDNF, and p TrkB 816 and p TrKB 515 by western blotting.

[15] = system: depression mice model; assay: In vivo corticosterone induced depression model: Forced Swim Test; design: species or system mouse (male C57)
Method: as §3
The forced swim test was employed to evaluate behavioral melancholy in depressed subjects. Each animal was individually conditioned in a glass cylinder 20 cm long, 10 cm deep and 14 cm radius of curvature. After being submerged in water for 5 mins, the mice's cumulative stationary episode, struggle in water, and eventual floating condition were evaluated. The duration for which the animals were motionless while attempting to hold both of their front limbs still was calculated by interpreting the visualizations portraying behavioral despair (Front Behav Neurosci., 2018, 12, 42).

[16] = system: depression mice model; assay: In vivo corticosterone induced depression model: sucrose preference test; design: species or system mouse (male C57); conditions: 2% sucrose, 21 days
Method: as §3
Sucrose consumption was employed to evaluate anhedonia, a core hallmark of depression in mice. The animals were allowed unfettered access to both identical bottles, one containing water while the other contained a 2% solution of sucrose, for 21 days.
The below equation was later employed to determine water and sugar consumed by mice:
Sucrose Preference=Sucrose consumed[…]/Total fluid intake.

[17] = Cort. alone, listed as corticosterone
[18] = without Cort., A1 20 mg/kg, fluoxetine 18 mg/kg

Q: With `C=C(C)[C@@H]1CCC(C)=C[C@H]1c1c(O)cc(CCCCC)cc1O` [B1, cannabidiol] as the compound, how does the inhibition at 5 µM ([1]; Mus musculus, RAW264.7, 5 μM, read-out: % NO Inhibition ± SD) read?
A: 24.3 ± 3.2%

Q: And the inhibition at 10 µM ([1]; Mus musculus, RAW264.7, 10 μM, read-out: % NO Inhibition ± SD)?
A: 38.3 ± 3.7%

Q: And the “production of NO (in words)” value ([1]; pre-treated)?
A: decreased

Q: What about the viability at 48 h, 20 µM [2] of the same compound?
A: 107 ± 1.53%

Q: And the viability at 24 h, 5 µM ([3]; RAW264.7, 5 μM)?
A: 95.5 ± 1.5%

Q: What about the viability at 24 h, 10 µM ([3]; RAW264.7, 10 μM) of the same compound?
A: 91 ± 1.6%

Q: What about the viability at 48 h, 20 µM [4] of the same compound?
A: 108 ± 1.13%

Q: What about the viability at 20 µM ([5]; read-out: % Cell viability ± SD, test compound 20 μM + Cort. 400 μM, 96 hrs) of the same compound?
A: 86.7 ± 1.16%

Q: What about the viability at 20 µM ([5]; read-out: % Cell viability ± SD, test compound alone, 20 μM, 96 hrs) of the same compound?
A: 102 ± 1.06%

Q: Which “Weight (g) ± SD” value ([6]; Cort. alone 35 μg/ml, negative control) does the source give for `C[C@]12C[C@H](O)[C@H]3[C@@H](CCC4=CC(=O)CC[C@@]43C)[C@@H]1CC[C@@H]2C(=O)CO` [Cort., corticosterone, reference compound] here?
A: 29.57 ± 3.90 g

Q: What about the “Weight (g) ± SD” value ([6]; Cort. alone 35 μg/ml, negative control, listed as corticosterone) of the same compound?
A: 27.40 ± 1.91 g

Q: What about the “anti BDNF level (in words)” value [7] of the same compound?
A: decrease

Q: What about the “p-Erk 44/42 level (in words)” value [8] of the same compound?
A: decrease

Q: What about the “Relative Protein Expression p TrkB 816” value ([9]; Cort. 400 μM, 6 hrs) of the same compound?
A: 0.36

Q: And the “p TrkB 816 level (in words)” value ([9]; after corticosterone insult)?
A: decrease

Q: What about the “Relative Protein Expression p TrkB 515” value ([10]; Cort. 400 μM, 6 hrs) of the same compound?
A: 0.15

Q: And the “p TrkB 515 level (in words)” value ([10]; after corticosterone insult)?
A: decrease

Q: And the “Relative Protein Expression p ERK 44/42” value [11]?
A: 0.36

Q: And the “Relative Protein Expression Anti BDNF” value [12]?
A: 0.10

Q: And the “% Immobility (sec) ± SD (dead time)” value ([13]; Cort. alone)?
A: 52.32 ± 9.96 s

Q: And the “% Latency to immobility (sec) ± SD” value ([13]; Cort. alone)?
A: 6.97 ± 4.52 s

Q: What about the “% Immobility (sec) ± SD (dead time)” value [13, 17] of the same compound?
A: 52.32 ± 9.96 s

Q: And the “% Latency to immobility (sec) ± SD” value [13, 17]?
A: 6.97 ± 4.52 s

Q: What about the “Relative Protein Expression PAKT 473” value ([14]; Cort. 400 μM, 6 hrs) of the same compound?
A: 0.01

Q: And the “p-AKT 473 level (in words)” value ([14]; after corticosterone insult)?
A: decrease

Q: And the “% Immobility (sec) ± SD (dead time)” value ([15]; Cort. alone 35 μg/ml)?
A: 67.15 ± 12.32 s

Q: What about the “% Latency to immobility (sec) ± SD” value ([15]; Cort. alone 35 μg/ml) of the same compound?
A: 16.14 ± 5.68 s

Q: What about the “% Sucrose consumption (ml) ± SD” value ([16]; Cort. alone, negative control) of the same compound?
A: 43.50 ± 3.35%

Q: And the “% Sucrose consumption (ml) ± SD” value ([16]; Cort. alone, negative control, listed as corticosterone)?
A: 43.50±3.35%

Q: For `CNCCC(Oc1ccc(C(F)(F)F)cc1)c1ccccc1` (stereo not drawn) [Fluoxetine], which “Weight (g) ± SD” value ([6]; with Cort. 35 μg/ml, A1 20 mg/kg oral, fluoxetine 18 mg/kg) is on record?
A: 38 ± 2.16 g

Q: What about the “Weight (g) ± SD” value ([6]; without Cort., A1 20 mg/kg oral, fluoxetine 18 mg/kg) of the same compound?
A: 40.42 ± 2.25 g

Q: And the “% Latency to immobility (sec) ± SD” value ([13]; with Cort. 35 μg/ml, A1 20 mg/kg, fluoxetine 18 mg/kg)?
A: 34.79 ± 6.38 s

Q: What about the “% Latency to immobility (sec) ± SD” value ([13]; with Cort. 35 μg/ml, A1 20 mg/kg, fluoxetine 18 mg/kg, listed as fluoxetine) of the same compound?
A: 34.79 ± 6.38 s

Q: What about the “% Immobility (sec) ± SD (dead time)” value [13, 18] of the same compound?
A: 19.61 ± 7.90 s and 19.61 s

Q: What about the “% Latency to immobility (sec) ± SD” value [13, 18] of the same compound?
A: 49.51 ± 7.84 s and 49.51 ± 7.82 s

Q: What about the “% Immobility (sec) ± SD (dead time)” value ([15]; with Cort.) of the same compound?
A: 47.84 ± 10.33 s

Q: What about the “% Latency to immobility (sec) ± SD” value ([15]; with Cort.) of the same compound?
A: 34.06 ± 11.21 s

Q: What about the “% Immobility (sec) ± SD (dead time)” value ([15]; with Cort., listed as fluoxetine) of the same compound?
A: 47.84 ± 10.33 s

Q: What about the “% Immobility (sec) ± SD (dead time)” value ([15]; without Cort.) of the same compound?
A: 22.39 ± 4.91 s

Q: And the “% Latency to immobility (sec) ± SD” value ([15]; without Cort.)?
A: 55.34 ± 15.71 s

Q: And the “% Sucrose consumption (ml) ± SD” value ([16]; with Cort.)?
A: 72.39 ± 2.69%

Q: And the “% Sucrose consumption (ml) ± SD” value ([16]; without Cort.)?
A: 82.10 ± 0.29%
